In assay [1] the test system is Candida albicans. Description: Antimicrobial activity against Candida albicans wisconsin at 30 ug by agar diffusion method. In kind it is functional. On the technique in general: A growth-free zone around the sample is the usual read-out of agar diffusion tests.
The subject of assay [2] is Candida albicans. Description: Antimicrobial activity against Candida albicans 109 at 30 ug by agar diffusion method. In kind it is functional.
A further assay concerns Saccharomyces cerevisiae. Put plainly: Antimicrobial activity against Saccharomyces cerevisiae at 30 ug by agar diffusion method. The class given is functional, organism-based.

The source made the active and inactive calls. No cut-off for these calls is given here.

Regarding `C=C1C(O)=C(C(=O)C(C)CC)C(=O)OC1C` (stereo unspecified), the zone of inhibition at 30 µg/disc in the assay with Candida albicans [1] (read-out: IZ) stood at 20 mm; in the assay on Candida albicans [2] (read-out: IZ) it was 24 mm. Also, the outcome in the assay on Saccharomyces cerevisiae was inactive.
With NYSTATIN, the inhibition zone (IZ) is 19 mm in the assay on Candida albicans [1], 22 mm with Candida albicans [2] and 21 mm with Saccharomyces cerevisiae.

The record behind these values is ChEMBL document CHEMBL1155614, “CR377, a new pentaketide antifungal agent isolated from an endophytic fungus” (2000).
